# Earlier results, collected in patent US7947458B1, “Placental human neurokinin B precursor” (Perinatal Diagnostics Limited, priority 1999, dated 2011).
# Like-named read-outs stand apart in the source and are kept apart here. Ends that are not written are not given here.
# Key:
# NK1 receptor = NK1 receptor (Homo sapiens, UniProt P25103)
# NK2 receptors = target: T1, NK2 receptors (Homo sapiens, UniProt P21452)
# T1 sequence (P21452 1-398): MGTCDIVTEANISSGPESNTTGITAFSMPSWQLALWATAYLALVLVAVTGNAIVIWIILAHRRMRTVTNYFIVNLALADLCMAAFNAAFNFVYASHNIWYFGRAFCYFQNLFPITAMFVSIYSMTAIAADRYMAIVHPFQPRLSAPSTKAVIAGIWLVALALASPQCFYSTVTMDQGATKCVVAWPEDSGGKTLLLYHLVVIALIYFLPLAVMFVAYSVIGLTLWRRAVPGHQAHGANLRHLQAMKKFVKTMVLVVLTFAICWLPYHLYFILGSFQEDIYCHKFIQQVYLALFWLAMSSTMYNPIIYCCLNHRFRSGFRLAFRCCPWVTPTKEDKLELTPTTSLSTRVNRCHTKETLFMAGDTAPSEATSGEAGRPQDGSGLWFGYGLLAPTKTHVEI
# [1] = dog, in vivo
# NK3 receptor = target: T2, NK3 receptor (Homo sapiens, UniProt P29371)
# T2 sequence (P29371 1-465): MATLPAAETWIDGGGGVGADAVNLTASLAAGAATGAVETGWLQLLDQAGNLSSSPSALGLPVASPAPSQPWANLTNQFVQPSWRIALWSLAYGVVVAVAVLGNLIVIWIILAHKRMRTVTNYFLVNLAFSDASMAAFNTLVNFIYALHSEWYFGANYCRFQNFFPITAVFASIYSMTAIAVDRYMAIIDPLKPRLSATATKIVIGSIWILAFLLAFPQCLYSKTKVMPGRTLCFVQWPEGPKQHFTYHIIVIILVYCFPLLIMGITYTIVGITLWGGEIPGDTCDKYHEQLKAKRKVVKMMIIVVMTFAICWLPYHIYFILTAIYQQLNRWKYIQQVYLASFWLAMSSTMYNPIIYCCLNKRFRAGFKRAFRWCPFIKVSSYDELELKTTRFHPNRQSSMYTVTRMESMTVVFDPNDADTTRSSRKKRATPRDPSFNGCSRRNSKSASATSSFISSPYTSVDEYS
# [2] = intravenous injections, guinea pigs
# [3] = intravenous infusion, rats
# Chain of NK1 receptor (P25103 whole entry, species assumed): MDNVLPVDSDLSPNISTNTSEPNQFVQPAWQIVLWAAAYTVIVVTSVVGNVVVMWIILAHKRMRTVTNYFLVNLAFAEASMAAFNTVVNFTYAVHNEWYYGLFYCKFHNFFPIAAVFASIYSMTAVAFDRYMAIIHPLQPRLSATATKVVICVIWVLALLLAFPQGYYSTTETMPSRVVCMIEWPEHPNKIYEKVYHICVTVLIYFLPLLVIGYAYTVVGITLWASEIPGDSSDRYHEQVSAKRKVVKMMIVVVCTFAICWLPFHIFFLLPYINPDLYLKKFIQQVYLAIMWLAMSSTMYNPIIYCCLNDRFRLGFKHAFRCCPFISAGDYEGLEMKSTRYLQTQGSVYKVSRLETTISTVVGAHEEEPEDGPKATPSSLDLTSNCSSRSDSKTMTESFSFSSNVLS
compound,measurement,setting,value
CN(Cc1ccccc1)C(=O)[C@H](Cc1ccc2ccccc2c1)NC(=O)[C@@H]1C[C@@H](O)CN1C(=O)c1cn(C)c2ccccc12 [FK 888],affinity for the NK1 receptor,NK1 receptor,high affinity
CC(=O)NC1(c2ccccc2)CCN(CC[C@H](CN(C)C(=O)c2ccccc2)c2ccc(Cl)c(Cl)c2)CC1 [SR 48968],affinity and selectivity for NK2 receptors,NK2 receptors,high affinity and selectivity
"neurokinin A (HKTDSFVGLM-NH2; ends and bridges not checked; UniProt P20366 98-107, looked up) [substance K, tachykinin designated substance K or neurokinin A]",effect on heart rate,[1],slow down the heart rate
neurokinin B [NKB],"vasoconstriction, potency rank among neurokinins",mesenteric vascular bed,most potent neurokinin to cause vasoconstriction
same,"contraction, potency rank among neurokinins",hepatic portal vein,most potent neurokinin
same,potency rank among tachykinins at the NK3 receptor,NK3 receptor,most potent member of the family
same,effect on blood pressure,[2],dose related hypertension
same,effect on blood pressure,[3],increase in blood pressure
"substance P (RPKPQQFFGLM-NH2; ends and bridges not checked; UniProt P20366 58-68, looked up)",effect on heart rate,[1],slow down the heart rate
